In test [1] the test system is LNCaP cells binding to huBMEC. Nature of the test: Adhesion of 3H-thymidine labeled LNCaP cancer cells to huBMEC lawns in presence of peptide. To be noted: for PERCENT OF CONTROL AT 2H ADHESION: LNCaP cells on huBMEC; for inhibition of the ability of LNCaP cells to bind to huBMEC: in words, based on Table 1. The format is cell-based, human. From the text: (§1) In accordance with one embodiment a method for inhibiting the growth of tumors is provided. The method comprises the steps of contacting tumor cells with a composition comprising an amino acid sequence selected from the group consisting of SEQ ID NOs: 1-24. As described in Example 3 the peptides of the present invention have been studied for their ability to prevent cancer cells from binding to human bone marrow endothelial cells (huBMEC). Either androgen dependent cancer cells (LNCaP cells) or androgen independent cancer cells (C42 cells) were labeled with 3H-thymidine and placed in contact with huBMEC in the presence of varying concentrations of bone targeting peptides R1 (SEQ ID NO: 25), R3 (SEQ ID NO: 27), L13 (SEQ ID NO: 22) and L19 (SEQ ID NO: 24). The cells were washed and the percent of acid precipitatable counts bound to huBMEC was determined (See Table 1). The control, where no bone targeting peptide was added generated approximately 18% acid ppt counts bound. […] Accordingly, these peptides in particular may be formulated a pharmaceutical compositions to prevent metastases to the bone. The composition may further include known anti-cancer agents such as chemotherapeutic agents. The compositions can be administered to a patient using any of the standard routes including oral and parenteral. In one preferred embodiment the compositions are administered locally by injection.
(§2) The initial interaction of metastatic cells is with the surface of the organ that will be colonized. Presumably, this interaction is through cell-matrix or cell-cell interaction. There are at least two potential targets for prostate cancer cells to interact, bone stromal cells and bone marrow endothelial cells. Briefly, lawns of target cells (D1 or huBMEC) will be established in 24-well dishes by seeding ˜5×10^4 cells per well 2-3 days before the adhesion experiment. At this time, subconfluent (˜50%) cultures of test cells (LNCaP, C4-2, DU145 and PC-3) will be placed into media with 1 uCi/ml tritiated thymidine. Two to three days later, labeled cells will be removed using a 5-10 mM EDTA/PBS solution and 1×10^5 test cells will be added to confluent lawns of target cells. Three groups are envisioned for each cell line 1) no peptide, 2) peptide at ED50 and 3) peptide at ED90.
(§3) There will also be an aliquot of labeled cells set aside to determine total acid precipitablc counts added. Adhesion assays will proceed for either 1 or 2 hours. Adherent cells will be separated from non-adherent cells by 2 rounds of 0.5 ml washes with PBS at 100 rpm for 2 minutes per wash. The remaining cells will then be fixed in 10% TCA for 10 min. with gentle shaking followed by hydrolysis of the residue in 0.5 ml of 2 N NaOH. The NaOH will be neutralized by 100 ul of concentrated HCl. The samples will then be counted in a liquid scintillation apparatus. The data will be analyzed by the Mellon Prostate Center Biostatistics Core to determine differences in growth and the ED50 and ED90 for each peptide if reasonable.
(§4) Using this adhesion assay the bone targeting peptides have been studied for their ability to prevent cancer cells from binding to huBMEC. Either androgen dependent cancer cells (LNCaP cells) or androgen independent cancer cells (C42 cells) were labeled with 3H-thymidine and placed in contact with huBMEC in the presence of varying concentrations of bone targeting peptides R1 (SEQ ID NO: 25), R3 (SEQ ID NO: 27), L13 (SEQ ID NO: 22) and L19 (SEQ ID NO: 24). The cells were washed and the percent of acid precipitatable counts bound to huBMEC was determined (See Table 1). The control, where no bone targeting peptide was added, is not shown, but generated approximately 18% acid ppt counts bound. […] Accordingly, these peptides in particular may be formulated a pharmaceutical compositions to prevent metastases to the bone.

The test system of test [2] is C4-2 cells binding to huBMEC. The test is described as follows: Adhesion of 3H-thymidine labeled C4-2 cancer cells to huBMEC lawns in presence of peptide. The note with it: for PERCENT OF CONTROL AT 2H ADHESION: C4-2 cells on huBMEC; for inhibition of the ability of C42 cells to bind to huBMEC: in words, based on Table 1. Format: cell-based, human.
Source text: as §1, §2, §3, §4

Test [3] concerns bone marrow derived mesenchymal cells and human bone marrow endothelial cells. Nature of the test: Binding of biotin-coupled peptides to cells in vitro, avidin-FITC detection. Format: cell-based. From the text: The cells currently investigated for binding to the peptides of the present invention were chosen because they are derived from bone marrow and are characteristic of mesenchymal cells that are pluripotential and behave as osteoprogenitors. The cells are capable of differentiating into bone cells in vitro and retain their osteogenic properties after transplantation in vivo into syngeneic mice. The human bone marrow endothelial cells are non-osteogenic and, therefore, are in contrast to the collagen type I, and mineral, producing properties of mesenchymal cells. The bone marrow endothelial cells serve the purpose of having a cell that is derived from the endothelial lining of the bone marrow cavity i.e. a cell from the endosteal surface. Although these are not the only cells that can be used, they will form the basis of the majority of the present studies with cells. […]
Peptides have been synthesized with a gly-gly-gly linker and coupled to biotin. […] Fluorescence was found at attachment sites of cellular processes to the substratum. […]
Control experiments with non-biotinylated peptides will ensure that binding avidin-FITC is specific to the properties of the peptide that target the cell surface or its extracellular matrix. No non-specific binding has been encountered so far with the three peptide sequences that have been explored and, there was no background fluorescence.

For the next test, the system named is rib bone. Nature of the test: Localisation of peptides to rib tissue. From the text:
The peptides may have different effects depending on cell types from different tissues. The need to explore cells from other tissues, such as fibroblasts, adipocytes or muscle cells, may be determined by the location of the peptide ligands in area of tissue that are not directed within bone but there are adjacent to it. The case in point is that one peptide so far, L19, has been located to a tissue, that has not been identified yet, which, is adjacent to bone in rib. […] Analysis of cell types other than marrow mesenchymal or endothelial cells will help identify the specific cells, and their matrices that are targeted by individual peptides.

As for “ALA- THR- TRP-SER-HIS-HIS-LEU-SER-SER-ALA-GLY-LEU (ATWSHHLSSAGL; listed as Homo sapiens) [R3]”, the “PERCENT OF CONTROL AT 2H ADHESION” value in test [1] (peptide 50 μM) is on record as 14.7 % of control; in test [1] (peptide 100 μM), 3.8 % of control; in test [2] (peptide 50 μM), 17.9 % of control; in test [2] (peptide 100 μM), 7.9 % of control. In addition, the “inhibition of the ability of LNCaP cells to bind to huBMEC” value in test [1] is recorded as “substantially inhibits”. In test [2], the “inhibition of the ability of C42 cells to bind to huBMEC” value (from here on “inhibition of the ability of C42 cells”) was “substantially inhibits”.

Turning to “ASN- TYR-SER-HIS-LEU-ARG- VAL-LYS-LEU-PRO-THR-PRO (NYSHLRVKLPTP; listed as Homo sapiens) [R1]”, the “PERCENT OF CONTROL AT 2H ADHESION” value in test [1] (peptide 50 μM) was 14.7 % of control; in test [1] (peptide 100 μM) it was 9.9 % of control; in test [2] (peptide 50 μM) it was 9.0 % of control; in test [2] (peptide 100 μM), 9.6 % of control. The “binding to cells in culture” value in test [3] is on record as “binds to cells in culture”.

“ASP-SER-SER-ASN-PRO-ILE-PHE- TRP-ARG-PRO-SER-SER (DSSNPIFWRPSS; listed as Homo sapiens) [L19]”: the “PERCENT OF CONTROL AT 2H ADHESION” value in test [1] (peptide 50 μM) is listed as 3.3 % of control; in test [1] (peptide 100 μM), 4.1 % of control; in test [2] (peptide 50 μM), 15.6 % of control; in test [2] (peptide 100 μM) it was 18.4 % of control. For the same substance, in test [2], the “inhibition of the ability of C42 cells” value is on record as “substantially inhibits”. Moreover, in the test on rib bone, the “binding to bone (in rib)” value is given as “not detected in the bone itself”. In the test with rib bone (preliminary), the “tissue localisation of peptide” value is given as “localized to a soft tissue adjacent to rib”.

Turning to “SER-GLY-HIS-GLN-LEU-LEU-LEU-ASN-LYS-MET-PRO-ASN (SGHQLLLNKMPN; listed as Homo sapiens) [L13]”, the “PERCENT OF CONTROL AT 2H ADHESION” value is listed as 3.8 % of control in test [1] (peptide 50 μM), 2.8 % of control in test [1] (peptide 100 μM), 5.8 % of control in test [2] (peptide 50 μM) and 4.2 % of control in test [2] (peptide 100 μM). Moreover, in test [1], the “inhibition of the ability of LNCaP cells to bind to huBMEC” value is on record as “substantially inhibits”. The “inhibition of the ability of C42 cells” value in test [2] was “substantially inhibits”. Further, the “binding to bone (in rib)” value in the test with rib bone is listed as “binds to rib bone”.

(Values after patent US7323542B2, “Bone targeting peptides” (University of Virginia Patent Foundation, priority 2002, dated 2008).)
